Experiment [1] concerns the target T1, Purine nucleoside phosphorylase (Homo sapiens, UniProt P00491).
T1 sequence (P00491 whole entry): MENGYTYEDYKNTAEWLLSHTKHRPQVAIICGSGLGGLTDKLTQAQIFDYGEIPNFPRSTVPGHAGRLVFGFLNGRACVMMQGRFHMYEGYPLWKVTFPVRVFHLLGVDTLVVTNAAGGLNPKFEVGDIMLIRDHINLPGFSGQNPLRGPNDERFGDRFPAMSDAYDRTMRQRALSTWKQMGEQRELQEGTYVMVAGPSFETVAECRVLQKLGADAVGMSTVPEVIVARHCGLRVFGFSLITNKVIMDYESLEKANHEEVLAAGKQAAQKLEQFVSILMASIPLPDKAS
Nature of the experiment: Inhibition of human PNP.

The target in experiment [2] is T2, Purine nucleoside phosphorylase (Plasmodium falciparum, UniProt Q8T9Z7).
T2 sequence (Q8T9Z7 whole entry): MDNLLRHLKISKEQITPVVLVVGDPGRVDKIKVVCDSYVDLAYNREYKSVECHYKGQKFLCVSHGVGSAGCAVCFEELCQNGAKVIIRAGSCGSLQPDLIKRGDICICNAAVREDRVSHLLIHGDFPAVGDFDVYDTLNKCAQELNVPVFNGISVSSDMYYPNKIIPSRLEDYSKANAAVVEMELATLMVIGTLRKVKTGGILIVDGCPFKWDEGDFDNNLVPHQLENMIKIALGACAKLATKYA
Nature of the experiment: Inhibition of Plasmodium falciparum PNP expressed in Escherichia coli BL21(DE3) cells by spectrophotometry.

In the next experiment the test system is Plasmodium falciparum. Nature of the experiment: Antiplasmodial activity against erythrocytic stages of Plasmodium falciparum 3D7 after 48 hrs by SYBR green assay. The format is functional, organism-based. As to conditions: 3D7, 48 h.
The next experiment deals with Uridine phosphorylase 1 (Homo sapiens, UniProt Q16831). Nature of the experiment: Inhibition of human uridine phosphorylase.

Molecules are shown by their SMILES.

Sequence of Uridine phosphorylase 1 (Q16831 whole entry): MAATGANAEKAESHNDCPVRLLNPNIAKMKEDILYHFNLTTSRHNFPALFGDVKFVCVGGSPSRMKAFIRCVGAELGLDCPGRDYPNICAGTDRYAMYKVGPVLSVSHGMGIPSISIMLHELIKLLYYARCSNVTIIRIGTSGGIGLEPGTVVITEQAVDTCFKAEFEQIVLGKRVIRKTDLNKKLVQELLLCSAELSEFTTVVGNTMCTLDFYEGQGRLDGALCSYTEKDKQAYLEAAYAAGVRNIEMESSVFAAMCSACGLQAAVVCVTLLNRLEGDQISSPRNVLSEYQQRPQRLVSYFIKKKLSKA

In experiment [1], `O=c1[nH]cnc2c(CN3CCCC3)c[nH]c12` showed a Kd of 0.0055 µM.
`O=C1NC(=O)C(Cc2ccccc2)C(=O)N1` yielded a half-maximal inhibitory concentration (IC50) in experiment [2] above 1000 µM.
For the compound `O=c1ccn(CCN2CCCC2)c(=O)[nH]1`, in experiment [2], 141 µM corresponded to half-maximal inhibition (IC50) and the Ki is 27 µM. This compound also displayed an EC50 in the experiment on Plasmodium falciparum above 500 µM.
In experiment [2], `O=c1ccn(CCCN2CCCC2)c(=O)[nH]1` returned an IC50 of 230 µM and a Ki of 59 µM. Also, the EC50 in the experiment with Plasmodium falciparum is above 1000 µM.
In the same order, the values of `O=c1ccn(CCCN2CCC[C@H]2CO)c(=O)[nH]1` are 712 µM, 136 µM and 375 µM.
For `O=c1ccn(CCCCN2CCCC2)c(=O)[nH]1`, in that order: 524 µM, 105 µM and above 1000 µM.
In experiment [2], `O=c1ccn(CCCCN2CCC[C@H]2CO)c(=O)[nH]1` had an IC50 of 592 µM and a Ki of 113 µM. Moreover, in the experiment with Plasmodium falciparum, the EC50 is above 1000 µM.
In experiment [2], `O=c1cc[nH]c(=O)n1CCN1CCCC1` yielded an IC50 of 42 µM and an inhibitory constant (Ki) of 6 µM. This compound had an EC50 in the experiment on Plasmodium falciparum above 500 µM.
Turning to `O=c1cc[nH]c(=O)n1CCN1CCC[C@H]1CO`, in experiment [2], it took 366 µM to reach half-maximal inhibition (IC50) and the Ki came to 75 µM. Also, in the experiment on Plasmodium falciparum, the EC50 is above 1000 µM.
`O=C1NC(=O)N(COCCO)C(=O)C1Cc1cccc(OCc2ccccc2)c1` (stereo not drawn): in experiment [2], the IC50 is above 1000 µM and the affinity, expressed as Ki, was 0.0011 µM. At Uridine phosphorylase 1, this compound came in with an inhibition constant Ki of 0.0011 µM.
`O=C1NC(=O)C(Cc2cccc(OCc3ccccc3)c2)C(=O)N1`: in experiment [2], the half-maximal inhibitory concentration (IC50) was above 1000 µM. On Uridine phosphorylase 1, this compound yielded a Ki of 2.3 µM.
